These are literature values, as cited in patent EP0513922B1, “Coating for foods and agricultural products to prevent the growth of moulds” (GIST-BROCADES N.V., priority 1991, dated 1992).

For data set [1] the following is noted: in aqueous systems, depending of the presence of other substances.
Data set [2] deals with fungus growth. The conditions noted are these: to be effective against fungus growth.

Take `C[C@@H]1C/C=C/C=C/C=C/C=C/[C@H](O[C@@H]2O[C@H](C)[C@@H](O)[C@H](N)[C@@H]2O)C[C@@H]2O[C@](O)(C[C@@H](O)C[C@H]3O[C@@H]3/C=C/C(=O)O1)C[C@H](O)[C@H]2C(=O)O` [natamycin]: in data set [1], the solubility of natamycin is 30 - 50 ppm. Further, the minimal inhibitory concentration entry in data set [2] is listed as “less than 10 ppm”.
